Test results published in BindingDB's records for doi:10.7270/Q2TX3CTT (Broad Institute, 2010).
Counter-ions that a name gives are not always drawn.

Target: Glycogen synthase kinase-3 beta (Homo sapiens, UniProt P49841)
Assay: concentration-response blocking of human GSK3B – biochemical, luminescence, cell-free homogeneous, retest, dose response (AID 434954)

Chain of Glycogen synthase kinase-3 beta (P49841 whole entry): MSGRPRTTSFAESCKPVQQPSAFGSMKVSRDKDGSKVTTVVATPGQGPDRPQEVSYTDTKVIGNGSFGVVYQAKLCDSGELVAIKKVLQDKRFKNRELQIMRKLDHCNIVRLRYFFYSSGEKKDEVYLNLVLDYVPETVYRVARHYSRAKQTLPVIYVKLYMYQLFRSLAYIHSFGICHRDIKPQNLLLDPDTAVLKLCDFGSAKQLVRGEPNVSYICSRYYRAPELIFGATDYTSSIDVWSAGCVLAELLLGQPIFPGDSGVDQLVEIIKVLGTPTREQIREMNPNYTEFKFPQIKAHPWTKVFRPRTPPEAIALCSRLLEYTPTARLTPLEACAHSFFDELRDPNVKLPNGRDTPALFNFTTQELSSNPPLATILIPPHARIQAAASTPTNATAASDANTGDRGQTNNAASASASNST

SMILES	EC50 [µM]
CC(Cc1c[nH]c2ccccc12)NC(=O)OCCCl (configuration not stated)	> 300
O=C(COc1ccccc1[N+](=O)[O-])N/N=C/c1ccc[nH]1 [(2-Nitro-phenoxy)-acetic acid [1-(1H-pyrrol-2-yl)-meth-(E)-ylidene]-hydrazide]	> 300
Cc1ccc(/C=C2/Sc3ccc(C(=O)NCCN4CCOCC4)cc3NC2=O)cc1	> 300
COc1ccc(C(=O)Nc2ccc([N+](=O)[O-])cn2)cc1OC [3,4-dimethoxy-N-(5-nitropyridin-2-yl)benzamide]	> 300
Cc1c(CN(C)C)c2c(n1C)C(=O)c1ccc(Br)cc1-2 [7-bromo-1-[(dimethylamino)methyl]-2,3-dimethyl-4-indeno[2,3-b]pyrrolone;hydrochloride]	17.8
COc1ccc(Cl)cc1NC(=O)CS(=O)(=O)c1cccc2nsnc12 [2-(2,1,3-benzothiadiazol-4-ylsulfonyl)-N-(5-chloranyl-2-methoxy-phenyl)ethanamide]	> 300
CCOc1ccc2ncc(C(=O)c3ccc(OC)cc3)c(N3CCN(CC)CC3)c2c1 [[6-ethoxy-4-(4-ethylpiperazin-1-yl)quinolin-3-yl](4-methoxyphenyl)methanone]	> 300
CCOC(=O)c1cnc2c(OC)cccc2c1N1CCN(c2ccc(OC)cc2)CC1	> 300
CC(C)N1CCc2c(sc(NC(=O)CN3C(=O)c4ccccc4C3=O)c2C(N)=O)C1	> 300
CCn1c(SCC(=O)Nc2ccccc2Cl)nnc1C1CC1 [N-(2-chlorophenyl)-2-[(5-cyclopropyl-4-ethyl-1,2,4-triazol-3-yl)sulfanyl]ethanamide]	> 300
Nc1nc(NCCOCCO)nc(Nc2cccc(F)c2)c1[N+](=O)[O-] [2-[2-[[4-azanyl-6-[(3-fluorophenyl)amino]-5-nitro-pyrimidin-2-yl]amino]ethoxy]ethanol]	10.7
O=S(=O)(c1ccc(Br)cc1)N1CCN(c2cc(-c3ccccc3)nc3ncnn23)CC1 [7-[4-(4-bromophenyl)sulfonyl-1-piperazinyl]-5-phenyl-[1,2,4]triazolo[1,5-a]pyrimidine]	> 300
O=[N+]([O-])c1ccc(-n2nnnc2-c2ccccc2)c([N+](=O)[O-])c1 [1-{2,4-bisnitrophenyl}-5-phenyl-1H-tetraazole]	> 300
CSc1nc(NCc2ccccc2)c2c3c(sc2n1)CN(C)CC3	23.3
CN1CCN(C(=O)Cn2ncc3c([nH]c4ccccc43)c2=O)CC1 [3-[2-(4-methylpiperazin-1-yl)-2-oxidanylidene-ethyl]-2H-pyridazino[4,5-b]indol-4-one]	> 300
CN(c1ncnc(N)c1[N+](=O)[O-])C1CCCCC1	2.57
Cc1c(C(=O)O)sc2c1c(=O)n(Cc1ccccc1)c(=O)n2C [1,5-dimethyl-2,4-dioxo-3-(phenylmethyl)-6-thieno[2,3-d]pyrimidinecarboxylic acid]	> 300
CCOc1ccc2c(c1)C(=O)C(=O)N2CC1COc2ccccc2O1 (configuration not stated) [1-(2,3-dihydro-1,4-benzodioxin-3-ylmethyl)-5-ethoxy-indole-2,3-dione]	> 300
COc1ccc(Nc2oc(COc3ccccc3F)nc2C#N)cc1	> 300
CCOC(=O)c1ccc(NC(=O)CN(C)S(=O)(=O)c2ccc(Br)s2)cc1 [ethyl 4-[2-[(5-bromanylthiophen-2-yl)sulfonyl-methyl-amino]ethanoylamino]benzoate]	> 300

Continued, values first:

EC50 [µM]	SMILES
> 300	COc1ccc(N2C(=O)C3CCCN3C2c2ccccc2F)cc1 (configuration not stated) [MLS000117169]
2.01	Nc1nc(NCCc2ccccc2)nc(NCCO)c1[N+](=O)[O-] [MLS001213372]
> 300	O=C(Nc1cccc(F)c1)Nc1ccccn1 [MLS000111709]
> 300	O=C(CSc1ncnc2c1cnn2-c1ccc(F)cc1)NCC1CCCO1 (configuration not stated) [SMR000806858]
> 300	Cc1ccc(OCCn2c(S)nc3c(N)ncnc32)cc1 [MLS000765129]
> 300	CCCNc1nc(N)nc(-c2cc(Cl)ccc2OC)n1 [MLS000538216]
> 300	Cc1cc(C)n2nc(C(=O)OCC(=O)NC(=O)c3ccccc3)nc2n1 [SMR000716574]
